Tests used:
[1] = Pharmacokinetics of crystal form A by oral administration in SD rats; format: in vivo; settings: male, rat, plasma, 92.3 mg/kg, suspension in 0.5% methylcellulose
Procedure: Male SD rats aged 7 to 10 weeks were selected, and administered candidate compound solution orally. Whole blood was collected for a certain period of time, and prepared to obtain plasma. Drug concentration was analyzed by LC-MS/MS method, and pharmacokinetic parameters were calculated by Phoenix WinNonlin software (Pharsight, USA).

[2] = Pharmacokinetics by oral administration in beagle dogs; format: in vivo; settings: male, dog, plasma, 24.5 mg/kg, 0.5% methylcellulose
Procedure: 680.397 mg of assay compound powder was accurately weighed, and 50 mL of 0.500 methylcellulose (400 viscosity) aqueous solution was added. The mixture was stirred for 10 minutes, and sonicated for 10 minutes. 50 mL of 0.5% o methylcellulose (400 viscosity) aqueous solution was added, and homogenized for 10 minutes using a homogenizer. 11 mL of 0.5% o methylcellulose (400 viscosity) aqueous solution was added. The mixture was sonicated for 5 minutes and stirred for 10 minutes. 358 μL of 0.5% o methylcellulose (400 viscosity) aqueous solution was added and stirred for 2 minutes. Male beagle dogs aged over six months were selected, and administered candidate compound solution orally. Whole blood was collected for a certain period of time, and prepared to obtain plasma. Drug concentration was analyzed by LC-MS/MS method, and pharmacokinetic parameters were calculated by Phoenix WinNonlin software (Pharsight, USA). The results of the assay are shown in Table 14: […]

[3] = Solid stability assay of crystal form A (XRPD); format: physicochemical
Text: The sample was spread into a thin layer. For the samples placed under conditions of high temperature and high humidity, the vial mouth was sealed with aluminum foil, and some small holes were punched in the aluminum foil to ensure that the samples were fully in contact with the ambient air. For the samples placed under condition of strong light, the vial mouth was sealed with aluminum foil, and some small holes were punched in the aluminum foil. Samples placed under different conditions were sampled and tested (XRPD) on day 5 and day 10, respectively. The assay results were compared with the initial assay results on day 0.
Each medicinal low-density polyethylene bag was tied tightly with a tie, and then was placed into a single-layer aluminum foil bag. The single-layer aluminum foil bag was then heat-sealed. Finally, the samples were stored in plastic buckets and stored in a chamber with constant temperature and humidity. The packaging used in the stability assay simulated the material storage packaging. The material was divided into 1.5 g/package as stability samples under red light. Each sample was packaged in the same way and labeled with a stability sample label. The samples placed under different conditions were sampled and tested (XRPD) in the 3rd and 6th months. The assay results were compared with the initial assay results on day 0.

[4] = read-out: Area under the plasma concentration-time curve, AUC0-last
[5] = read-out: Peak concentration, Cmax

C=C(F)C(=O)N1CCN(c2nc(OC[C@@]34CCCN3C[C@H](F)C4)nc3c2CO[C@H](c2c(F)c(N)cc(C)c2C(F)(F)F)C3)C[C@@H]1CC#N
AUC(0-t) [1, 4]: 11.5 µM·h
Cmax [1, 5]: 1400 nM
Tmax ([1]; read-out: Time-to-peak, Tmax): 5.33 h
AUC(0-t) [2, 4]: 16.7 µM·h
Cmax [2, 5]: 2440 nM
Tmax ([2]; read-out: Time-to-peak, Tmax): 2.5 h
Crystal form ([3]; 25 ± 2° C./60 ± 5% relative humidity, 3 months): Crystal form A
Crystal form ([3]; 25 ± 2° C./60 ± 5% relative humidity, 6 months): Crystal form A
Crystal form ([3]; 40 ± 2° C./75 ± 5% relative humidity, 3 months): Crystal form A
Crystal form ([3]; 40 ± 2° C./75 ± 5% relative humidity, 6 months): Crystal form A
Crystal form ([3]; High humidity (25° C./relative humidity 92.5%, unsealed), 5 days): Crystal form A
Crystal form ([3]; High humidity (25° C./relative humidity 92.5%, unsealed), 10 days): Crystal form A
Crystal form ([3]; High temperature (60° C., unsealed), 5 days): Crystal form A
Crystal form ([3]; High temperature (60° C., unsealed), 10 days): Crystal form A
Crystal form ([3]; Light control, 5 days): Crystal form A
Crystal form ([3]; Light control, 10 days): Crystal form A
solid stability ([3]; high temperature, high humidity, strong light, long-term and accelerated experiments): good stability
Crystal form ([3]; initial, 0 day (XRPD)): Crystal form A

— US20250129102A1, “CRYSTAL FORM OF PYRIMIDINE HETEROCYCLIC COMPOUND AND PREPARATION METHOD THEREFOR” (D3 Bio (Wuxi) Co., Ltd., priority 2021, published 2025)
